Experimental data taken from patent US20140263071A1, “METHOD FOR COLLECTING METALS” (CHEMEC OY AB, priority 2011, published 2014).
Marks after values point to notes of the source that are not given here.

Tests used:
[1] = Purification of water draining through the dump site, TS 1 (Example 16); details: Mo^2+
[2] = Drilled well water softening and purification (Example 15)
Experimental: Drilled well sample 1 (DW 1) was nearby Tampere and sample 2 (DW 2) nearby Turku. Samples (100 ml each) were stirred with 1a (1.0 g) for 24 h. The initial and final metal concentrations in solutions of selected metals were determined by using ICP-AES analysis after filtration and results are shown in Table 9.

[3] = Collection capacity (Example 10); details: 100 ppm starting concentration
Experimental: (§1) A water solution (110 ml) containing known amount of single cationic element or elements, typically 0.5-200 ppm, was prepared from Merch Titrisol® standard solution. After adjusting pH by using acid (e.g. HCl or HNO3) or base (e.g. NaOH) to desired initial value, sample A (10 ml) was taken followed by adding 100 mg of selected solid complexation agent. The mixture was stirred at room temperature for 24 h and sample B (10 ml) was taken. Samples A and B were filtrated separately trough 0.2 μm syringe filter and the concentration of the studied element or elements in both solution was determined by using atomic absorption spectrophotometer. The expulsion percent was determined from the concentration differences between the sample solutions A and B.
Capacity of 1a to collect selected metals were determined following the general procedure described above by using 100 ppm starting metal concentration in each experiment and 1a (100 mg) at selected pH. Amounts of removed metals from the mixture were determined by using AAS. Results are collected in table 5 and are given in mg of metal bound to 1 g of 1a.

[4] = Purification of water draining through the dump site, TS 1 (Example 16)
Experimental: Drainage water sample was taken from dumping site containing polluted soil: ca. 200 mg/l of Ca^2+ and Mg^2+; 0.05-0.3 mg/l of Al^3+, Ba^2+, Mn^2+, Mo^6+, Ni^2+ and Zn^2+; ≦0.05 mg/l of As^3+ (or As^5+), Cd^2+ and Pb^2+; pH 3.53.
Test Sample 1 (TS 1, 100 ml), which initial metal cation concentrations were determined by using ICP-AES method, was treated with 1a (1.0 g) with stirring for 24 h. After filtration trough 0.2 μm syringe filter metal concentrations in solution were determined and removal per cents were calculated. Since TS 1 contained only small amounts of As, Cd and Pb, sample was spiked with known amounts of these metal cations. The spiked sample (100 ml) was treated with 1a (1 g) as original TS 1 sample.

[5] = Maximum expulsion percent of single metal cations from water solution (Example 8)
Experimental: as §1
The maximum expulsion percent and pH value in which the value was achieved was determined for each single cationic element using the general procedure mentioned above.

Compound: NCCCCCCCCCCC(O)(P(=O)(O)O)P(=O)(O)O [Compound 1a, 11-Amino-1-hydroxyundecane-1,1-diyldiphosphonic acid]
- Expulsion [%] ([1]; Spiked TS 1): ≥ 52^2) %
- Expulsion [%] ([1]; TS 1): ≥ 58^2) %
- Concentration after 1a ([2]; DW 1 (pH 7.04), Al^3+, initial <0.05 mg/l): <0.05 mg/L
- Concentration after 1a ([2]; DW 1 (pH 7.04), Ca^2+, initial 43.8 mg/l): 0.232 mg/L
- Concentration after 1a ([2]; DW 1 (pH 7.04), Cu^2+, initial <0.05 mg/l): <0.05 mg/L
- Concentration after 1a ([2]; DW 1 (pH 7.04), Mg^2+, initial 10.9 mg/l): <0.1^4) mg/l
- Concentration after 1a ([2]; DW 1 (pH 7.04), Mn^2+, initial 0.095 mg/l): <0.02^4) mg/l
- Concentration after 1a ([2]; DW 1 (pH 7.04), Na^+, initial 15.2 mg/l): 13.5 mg/L
- Concentration after 1a ([2]; DW 1 (pH 7.04), Sr^2+, initial 0.097 mg/l): <0.02^4) mg/l
- Concentration after 1a ([2]; DW 1 (pH 7.04), Zn^2+, initial 0.044 mg/l): 0.018 mg/L
- Expulsion [%] ([2]; DW 1, Ca^2+): 99%
- Expulsion [%] ([2]; DW 1, Mg^2+): ≥ 99^5) %
- Expulsion [%] ([2]; DW 1, Mn^2+): ≥ 79^5) %
- Expulsion [%] ([2]; DW 1, Na^+): 11%
- Expulsion [%] ([2]; DW 1, Sr^2+): ≥ 79^5) %
- Expulsion [%] ([2]; DW 1, Zn^2+): ≥ 59^5) %
- Concentration after 1a ([2]; DW 2 (pH 6.97), Al^3+, initial 0.107 mg/l): <0.05^4) mg/l
- Concentration after 1a ([2]; DW 2 (pH 6.97), Ca^2+, initial 22.2 mg/l): 0.479 mg/L
- Concentration after 1a ([2]; DW 2 (pH 6.97), Cu^2+, initial 0.271 mg/l): <0.05^4) mg/l
- Concentration after 1a ([2]; DW 2 (pH 6.97), Mg^2+, initial 13.60 mg/l): 0.102 mg/L
- Concentration after 1a ([2]; DW 2 (pH 6.97), Mn^2+, initial <0.02 mg/l): <0.02 mg/L
- Concentration after 1a ([2]; DW 2 (pH 6.97), Na^+, initial 19.0 mg/l): 17.3 mg/L
- Concentration after 1a ([2]; DW 2 (pH 6.97), Sr^2+, initial 0.113 mg/l): 0.029 mg/L
- Concentration after 1a ([2]; DW 2 (pH 6.97), Zn^2+, initial 0.284 mg/l): 0.026 mg/L
- Expulsion [%] ([2]; DW 2, Al^3+): ≥ 53^5) %
- Expulsion [%] ([2]; DW 2, Ca^2+): 98%
- Expulsion [%] ([2]; DW 2, Cu^2+): ≥ 82^5) %
- Expulsion [%] ([2]; DW 2, Mg^2+): 99%
- Expulsion [%] ([2]; DW 2, Na^+): 9%
- Expulsion [%] ([2]; DW 2, Sr^2+): 74%
- Expulsion [%] ([2]; DW 2, Zn^2+): 91%
- Capacity ([3]; Ag^+, pH 2.5): 94.6 mg/g
- Capacity ([3]; Au^3+, pH 4.0): 19.0 mg/g
- Capacity ([3]; Ca^2+, pH 4.0): 50.9 mg/g
- Capacity ([3]; Cd^2+, pH 4.0): 74.1 mg/g
- Capacity ([3]; Co^2+, pH 4.5): 85.5 mg/g
- Capacity ([3]; Cr^3+, pH 3.5): 9.9 mg/g
- Capacity ([3]; Cu^2+, pH 4.0): 61.6 mg/g
- Capacity ([3]; Fe^2+, pH 3.0): 82.7 mg/g
- Capacity ([3]; Fe^3+, pH 3.0): 15.2 mg/g
- Capacity ([3]; Mo^6+, pH 9.1): 97.2 mg/g
- Capacity ([3]; Ni^2+, pH 4.0): 13.1 mg/g
- Capacity ([3]; Pb^2+, pH 4.0): 85.6 mg/g
- Capacity [mg/g] ([3]; Sc^3+, pH 2.0): 16.9^1) mg/g
- Capacity ([3]; Zn^2+, pH 4.0): 70.9 mg/g
- Expulsion [%] ([4]; Spiked TS 1, Al^3+): 67%
- Expulsion [%] ([4]; Spiked TS 1, As^3/5+): 0%
- Expulsion [%] ([4]; Spiked TS 1, Ba^2+): 26%
- Expulsion [%] ([4]; Spiked TS 1, Ca^2+): 48%
- Expulsion [%] ([4]; Spiked TS 1, Cd^2+): 96%
- Expulsion [%] ([4]; Spiked TS 1, Mg^2+): 78%
- Expulsion [%] ([4]; Spiked TS 1, Mn^2+): ≥ 51^2) %
- Expulsion [%] ([4]; Spiked TS 1, Ni^2+): 33%
- Expulsion [%] ([4]; Spiked TS 1, Pb^2+): 94%
- Expulsion [%] ([4]; Spiked TS 1, Zn^2+): 90%
- Expulsion [%] ([4]; TS 1, Al^3+): 76%
- Expulsion [%] ([4]; TS 1, Ba^2+): 32%
- Expulsion [%] ([4]; TS 1, Ca^2+): 51%
- Expulsion [%] ([4]; TS 1, Mg^2+): 81%
- Expulsion [%] ([4]; TS 1, Mn^2+): ≥ 57^2) %
- Expulsion [%] ([4]; TS 1, Ni^2+): 50%
- Expulsion [%] ([4]; TS 1, Zn^2+): 89%
- Expulsion-% (maximum) ([5]; Ag^+, pH 2.0, initial 1 ppm): 100%
- Expulsion-% (maximum) ([5]; Al^3+, pH 2.1, initial 10 ppm): 96.9%
- Expulsion-% (maximum) ([5]; Au^3+, pH 0.5, initial 1 ppm): 63.3%
- Expulsion-% (maximum) ([5]; Ba^2+, pH 3.0, initial 10 ppm): 90.2%
- Expulsion-% (maximum) ([5]; Bi^3+, pH 3.0, initial 10 ppm): 100%
- Expulsion-% (maximum) ([5]; Ca^2+, pH 2.6, initial 2 ppm): 69.9%
- Expulsion-% (maximum) ([5]; Cd^2+, pH 3.6, initial 0.5 ppm): 97.3%
- Expulsion-% (maximum) ([5]; Co^2+, pH 3.4, initial 1 ppm): 85.0%
- Expulsion-% (maximum) ([5]; Cr^3+, pH 3.1, initial 2 ppm): 97.2%
- Expulsion-% (maximum) ([5]; Cr^6+, pH 6.6, initial 2 ppm): 0%
- Expulsion-% (maximum) ([5]; Cu^2+, pH 3.5, initial 2 ppm): 95.7%
- Expulsion-% (maximum) ([5]; Cu^+, pH 2.4, initial 2 ppm): 85.3%
- Expulsion-% (maximum) ([5]; Eu^3+, pH 4.0, initial 5 ppm): 85.3%
- Expulsion-% (maximum) ([5]; Fe^2+, pH 6.5, initial 1 ppm): 93.0%
- Expulsion-% (maximum) ([5]; Fe^3+, pH 3.1, initial 1 ppm): 98.9%
- Expulsion-% (maximum) ([5]; Ga^3+, pH 0.5, initial 50 ppm): 1.0%
- Expulsion-% (maximum) ([5]; Gd^3+, pH 1.5, initial 100 ppm): 0%
- Expulsion-% (maximum) ([5]; Hg^2+, pH 5.0, initial 0.1 ppm): 93.0%
- Expulsion-% (maximum) ([5]; Hg^+, pH 3.0, initial 1 ppm): 89.4%
- Expulsion-% (maximum) ([5]; In^3+, pH 2.1, initial 20 ppm): 73.4%
- Expulsion-% (maximum) ([5]; Ir^3+, pH 0.6, initial 100 ppm): 66.1%
- Expulsion-% (maximum) ([5]; K^+, pH 4.2, initial 1 ppm): 0%
- Expulsion-% (maximum) ([5]; La^3+, pH 3.0, initial 100 ppm): 54.1%
- Expulsion-% (maximum) ([5]; Li^+, pH 3.9, initial 0.5 ppm): 4.8%
- Expulsion-% (maximum) ([5]; Mg^2+, pH 2.9, initial 0.5 ppm): 64.3%
- Expulsion-% (maximum) ([5]; Mn^2+, pH 3.4, initial 1 ppm): 93.8%
- Expulsion-% (maximum) ([5]; Mo^6+, pH 8.9, initial 10 ppm): 80.8%
- Expulsion-% (maximum) ([5]; Na^+, pH 3.9, initial 0.5 ppm): 0%
- Expulsion-% (maximum) ([5]; Nb^5+, pH 8.5, initial 100 ppm): 100%
- Expulsion-% (maximum) ([5]; Nd^3+, pH 4.1, initial 100 ppm): 98.1%
- Expulsion-% (maximum) ([5]; Ni^2+, pH 3.3, initial 1 ppm): 78.6%
- Expulsion-% (maximum) ([5]; Os^4+, pH 0.5, initial 100 ppm): 85.8%
- Expulsion-% (maximum) ([5]; Pb^2+, pH 3.2, initial 5 ppm): 99.6%
- Expulsion-% (maximum) ([5]; Pd^2+, pH 8.0, initial 5 ppm): 77.8%
- Expulsion-% (maximum) ([5]; Pt^2+, pH 0.5, initial 25 ppm): 70.0%
- Expulsion-% (maximum) ([5]; Rh^3+, pH 4.0, initial 10 ppm): 77.7%
- Expulsion-% (maximum) ([5]; Ru^3+, pH 2.0, initial 10 ppm): 48.5%
- Expulsion-% (maximum) ([5]; Sb^3+, pH 3.0, initial 10 ppm): 100%
- Expulsion-% (maximum) ([5]; Sc^3+, pH 2.0, initial 5 ppm): 100%
- Expulsion-% (maximum) ([5]; Si^4+, pH 1.0, initial 50 ppm): 1.3%
- Expulsion-% (maximum) ([5]; Sn^2+, pH 7.0, initial 50 ppm): 98.1%
- Expulsion-% (maximum) ([5]; Sn^4+, pH 10.3, initial 200 ppm): 100%
- Expulsion-% (maximum) ([5]; Sr^2+, pH 5.0, initial 2 ppm): 93.2%
- Expulsion-% (maximum) ([5]; Ti^4+, pH 9.8, initial 50 ppm): 48.8%
- Expulsion-% (maximum) ([5]; U^6+, pH 3.4, initial 2.5 ppm): 87.6%
- Expulsion-% (maximum) ([5]; V^4+, pH 0.5, initial 100 ppm): 69.3%
- Expulsion-% (maximum) ([5]; W^6+, pH 1.6, initial 50 ppm): 12.0%
- Expulsion-% (maximum) ([5]; Y^3+, pH 2.1, initial 25 ppm): 89.1%
- Expulsion-% (maximum) ([5]; Zn^2+, pH 3.7, initial 0.5 ppm): 94.7%
- Expulsion-% (maximum) ([5]; Zr^4+, pH 0.5, initial 100 ppm): 81.5%
